# Measured values as given in patent US20100137266A1, “TREATMENT OF INSULIN RESISTANCE AND DISORDERS ASSOCIATED THEREWITH” (UNIVERSITETET I OSLO, priority 2006, published 2010).
# Assay: Stability in bovine plasma
# Assay type: in vitro ADME
# Details: 300 μM in citrated bovine plasma, 37° C., 24 h; HPLC detection at 210 nm
# Description: A stock solution of 22(S)-hydroxycholesterol diglutarate was prepared by adding 50 mg of the compound to a 50 ml volumetric flask, followed by 0.5 ml DMSO and deionised water to 50 ml, giving a final concentration of 1.0 mg/ml. The plasma solution was prepared by adding 0.38 ml of the 22(S)-hydroxycholesterol diglutarate stock solution to 1.62 ml of citrated bovine plasma, giving a final concentration of 300 μM. The citrated bovine plasma was incubated at 37° C. for 24 h. Proteins were discarded from the samples by centrifugal filtration before 50 μl volume of the filtrate was injected with an autosampler onto an analytical column (C18 reverse phase system) The mobile phase consisted of a gradient composed of water and acetonitrile (20→50% from 0 to 10 min, the mobile phase increased from 0.5 ml/min→1.0 ml/min in 10 minutes). Eluted compounds were detected at 210 nm.
smiles,measurement,value
"CC(C)CCC(OC(=O)CCCC(=O)O)[C@@H](C)C1CCC2C3CC=C4CC(OC(=O)CCCC(=O)O)CCC4(C)C3CCC21C (stereo partly drawn) [22(S)-hydroxycholesterol diglutarate, 22(S)-Hydroxycholesterol Diglutarate]",detection of compound after incubation in plasma,not possible to detect
